Test results reported in publication PMC11837497, “A novel FadL family outer membrane transporter is involved in the uptake of polycyclic aromatic hydrocarbons” (Applied and Environmental Microbiology, 2025).

Molecular target: T1, PadL (NpPadL) (Novosphingobium pentaromativorans, UniProt G6EAN6)
T1 construct: gene NSU_1434; padL expressed from pET-28b (T7, IPTG) in E. coli BL21 cells; also pHGE-Ptac complementation of delta-padL US6-1; signal peptide (residues 1-45) removed only in the model
T1 sequence (G6EAN6 46-450): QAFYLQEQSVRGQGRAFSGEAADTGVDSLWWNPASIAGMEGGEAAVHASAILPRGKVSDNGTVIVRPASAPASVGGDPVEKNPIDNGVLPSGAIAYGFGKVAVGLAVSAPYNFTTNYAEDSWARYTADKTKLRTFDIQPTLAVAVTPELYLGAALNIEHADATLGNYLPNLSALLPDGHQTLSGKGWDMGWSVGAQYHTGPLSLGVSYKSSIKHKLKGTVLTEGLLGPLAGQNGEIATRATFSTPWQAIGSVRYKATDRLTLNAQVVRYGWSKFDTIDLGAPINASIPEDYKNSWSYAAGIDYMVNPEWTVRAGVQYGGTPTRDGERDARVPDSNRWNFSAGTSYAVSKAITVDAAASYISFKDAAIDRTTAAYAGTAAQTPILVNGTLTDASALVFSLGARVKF
Assay: uptake by intact cells, confocal fluorescence of intracellular phenanthrene
Format: cell-based
Settings: E. coli BL21/pET28b-padL, LB medium, 200 mg/L phenanthrene, IPTG induction, 37 °C

In the case of `c1ccc2c(c1)ccc1ccccc12` [phenanthrene], the “uptake by intact cells, confocal fluorescence of intracellular phenanthrene” value is reported as “E. coli BL21 can be endowed with an ability to assimilate phenanthrene after heterologous expression of PadL”.
